The values that follow come from the supplement of paper PMC10307832.

Holding throughout (experiment): relative viability (nuclei count vs DMSO), 5 days (fraction); higher = more cells survive
Compound in the experiment “GW-2580 + Navitoclax”: COC1=CC=C(C=C1)COC2=C(C=C(C=C2)CC3=CN=C(N=C3N)N)OC [GW-2580] + CC1(C)CCC(c2ccc(Cl)cc2)=C(CN2CCN(c3ccc(C(=O)NS(=O)(=O)c4ccc(N[C@H](CCN5CCOCC5)CSc5ccccc5)c(S(=O)(=O)C(F)(F)F)c4)cc3)CC2)C1 [Navitoclax] (partner 0.5 µM)
The essentials: (§1)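 Relative viability was taken as the ratio of nuclei in treated wells to nuclei in vehicle wells. Lung cancer cell lines in 1536-well plates received compounds by pin tool one day after seeding, either one drug alone or a fixed anchor-drug dose plus five library-drug doses (not always all listed) in √10 steps. Nuclei were counted on 4× images after 5 days of treatment, and values are medians of duplicate plates.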

Compound in the experiment “GW-2580 + Pictilisib”: COC1=CC=C(C=C1)COC2=C(C=C(C=C2)CC3=CN=C(N=C3N)N)OC [GW-2580] + CS(=O)(=O)N1CCN(Cc2cc3nc(-c4cccc5[nH]ncc45)nc(N4CCOCC4)c3s2)CC1 [Pictilisib] (partner 1 µM)
Summed up:
as §1

Compound in the experiment “GW-2580 + Olaparib”: COC1=CC=C(C=C1)COC2=C(C=C(C=C2)CC3=CN=C(N=C3N)N)OC [GW-2580] + O=C(c1cc(Cc2n[nH]c(=O)c3ccccc23)ccc1F)N1CCN(C(=O)C2CC2)CC1 [Olaparib] (partner 8 µM)
The essentials:
as §1

Compound in the experiment “Fedratinib + Dasatinib”: Cc1cnc(Nc2ccc(OCCN3CCCC3)cc2)nc1Nc1cccc(S(=O)(=O)NC(C)(C)C)c1 [Fedratinib] + Cc1nc(Nc2ncc(C(=O)Nc3c(C)cccc3Cl)s2)cc(N2CCN(CCO)CC2)n1 [Dasatinib] (partner 0.075 µM)
Summed up: as §1

Compound in the experiment “Fedratinib + Decitabine”: Cc1cnc(Nc2ccc(OCCN3CCCC3)cc2)nc1Nc1cccc(S(=O)(=O)NC(C)(C)C)c1 [Fedratinib] + Nc1ncn([C@H]2C[C@H](O)[C@@H](CO)O2)c(=O)n1 [Decitabine] (partner 2 µM)
Summed up:
as §1

For UMC-11, the relative viability in the experiment with GW-2580 + Navitoclax (first compound 0.08 µM) amounted to 0.309; with GW-2580 + Navitoclax (first compound 0.8 µM) it was 0.342; with GW-2580 + Navitoclax (first compound 2.53 µM), 0.291; in the experiment with GW-2580 + Navitoclax (first compound 8 µM), 0.324; in the experiment with GW-2580 + Pictilisib (first compound 0.08 µM), 0.828; with GW-2580 + Pictilisib (first compound 0.8 µM) it was 1.01. For the same cell line, the relative viability in the experiment with GW-2580 + Pictilisib (first compound 2.53 µM) worked out at 0.695; in the experiment with GW-2580 + Pictilisib (first compound 8 µM) it was 0.823; with GW-2580 + Olaparib (first compound 0.08 µM), 0.358; in the experiment with GW-2580 + Olaparib (first compound 0.8 µM), 0.375; with GW-2580 + Olaparib (first compound 2.53 µM) it was 0.464; with GW-2580 + Olaparib (first compound 8 µM), 0.436. In addition, the relative viability with Fedratinib + Dasatinib (first compound 0.1 µM) was found to be 0.53; with Fedratinib + Dasatinib (first compound 0.3162 µM), 0.412; with Fedratinib + Dasatinib (first compound 1 µM), 0.453; with Fedratinib + Decitabine (first compound 0.1 µM), 0.61; with Fedratinib + Decitabine (first compound 0.3162 µM), 0.603; in the experiment with Fedratinib + Decitabine (first compound 1 µM), 0.551.
